Measurements from the supplement of paper PMC12076712.

Tests used:
Assay in all cases: pIC50, kinobeads binding competition
[1] = target: DYRK1A (UniProt Q13627)
Summary of the method: (§1)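 Either living Jurkat cells (60 min at 37 °C, then lysis) or lysates (60 min at 4 °C) were treated with nine compound concentrations from a top of 30 μM, in 1:4 steps for cells and 1:5 steps for lysates. The lysates were from Jurkat cells or a 1:1:1:1 mix of HEK293, K-562, HepG2 and placenta. Kinobeads-bound proteins were digested and quantified by TMT10 LC-MS/MS. pIC50 was calculated by logistic dose-response fitting (R drc package) of fold changes relative to vehicle, in biological duplicates.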

[2] = target: Fyn (UniProt P06241)
Chain of Fyn (P06241 whole entry, looked up): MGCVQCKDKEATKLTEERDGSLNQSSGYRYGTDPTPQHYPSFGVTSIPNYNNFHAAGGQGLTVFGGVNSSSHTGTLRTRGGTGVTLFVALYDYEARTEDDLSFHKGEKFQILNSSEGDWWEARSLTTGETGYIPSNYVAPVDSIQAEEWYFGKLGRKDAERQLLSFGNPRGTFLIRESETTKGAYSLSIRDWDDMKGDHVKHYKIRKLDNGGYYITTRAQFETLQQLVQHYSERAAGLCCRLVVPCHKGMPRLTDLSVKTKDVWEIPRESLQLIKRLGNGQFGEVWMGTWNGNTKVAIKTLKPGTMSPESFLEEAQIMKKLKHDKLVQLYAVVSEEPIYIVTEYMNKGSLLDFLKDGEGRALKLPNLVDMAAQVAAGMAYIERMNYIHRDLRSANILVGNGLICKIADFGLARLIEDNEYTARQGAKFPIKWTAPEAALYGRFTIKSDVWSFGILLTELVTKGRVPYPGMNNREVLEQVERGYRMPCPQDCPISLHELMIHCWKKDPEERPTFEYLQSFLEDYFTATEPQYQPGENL
Summary of the method: as §1

[3] = target: PRKAA2 (UniProt P54646); conditions: cell material: Lysate mix
Summary of the method: as §1

[4] = target: EPHA7 (UniProt Q15375); conditions: cell material: Lysate mix
Chain of EPHA7 (Q15375 whole entry, looked up): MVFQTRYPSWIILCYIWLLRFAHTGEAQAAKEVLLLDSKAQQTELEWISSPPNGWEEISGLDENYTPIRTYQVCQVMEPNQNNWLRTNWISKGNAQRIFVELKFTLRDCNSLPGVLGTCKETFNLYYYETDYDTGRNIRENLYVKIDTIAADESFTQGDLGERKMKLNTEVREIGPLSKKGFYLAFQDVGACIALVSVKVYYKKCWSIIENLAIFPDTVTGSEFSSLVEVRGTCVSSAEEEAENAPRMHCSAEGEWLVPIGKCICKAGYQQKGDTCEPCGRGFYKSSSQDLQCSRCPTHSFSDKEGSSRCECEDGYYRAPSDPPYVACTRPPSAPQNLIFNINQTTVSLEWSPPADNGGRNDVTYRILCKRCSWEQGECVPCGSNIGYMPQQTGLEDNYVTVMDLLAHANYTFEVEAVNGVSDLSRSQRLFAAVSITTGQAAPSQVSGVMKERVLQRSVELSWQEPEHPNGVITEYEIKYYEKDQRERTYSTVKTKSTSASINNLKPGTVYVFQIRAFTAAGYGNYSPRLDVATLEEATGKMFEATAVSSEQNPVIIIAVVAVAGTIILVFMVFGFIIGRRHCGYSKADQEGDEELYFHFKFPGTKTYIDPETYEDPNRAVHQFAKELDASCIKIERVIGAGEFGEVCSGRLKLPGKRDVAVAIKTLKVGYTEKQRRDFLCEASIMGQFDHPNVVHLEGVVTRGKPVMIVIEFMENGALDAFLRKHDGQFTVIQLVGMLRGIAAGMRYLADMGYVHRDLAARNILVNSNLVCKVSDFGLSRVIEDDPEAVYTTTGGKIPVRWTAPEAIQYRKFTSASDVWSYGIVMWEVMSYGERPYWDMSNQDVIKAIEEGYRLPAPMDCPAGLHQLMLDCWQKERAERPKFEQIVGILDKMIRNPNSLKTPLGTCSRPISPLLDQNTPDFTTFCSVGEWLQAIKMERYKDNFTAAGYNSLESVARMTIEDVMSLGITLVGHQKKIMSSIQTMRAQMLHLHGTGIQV
Summary of the method: as §1

[5] = target: UniProt Q9Y2I7
Chain of UniProt Q9Y2I7 (Q9Y2I7 whole entry): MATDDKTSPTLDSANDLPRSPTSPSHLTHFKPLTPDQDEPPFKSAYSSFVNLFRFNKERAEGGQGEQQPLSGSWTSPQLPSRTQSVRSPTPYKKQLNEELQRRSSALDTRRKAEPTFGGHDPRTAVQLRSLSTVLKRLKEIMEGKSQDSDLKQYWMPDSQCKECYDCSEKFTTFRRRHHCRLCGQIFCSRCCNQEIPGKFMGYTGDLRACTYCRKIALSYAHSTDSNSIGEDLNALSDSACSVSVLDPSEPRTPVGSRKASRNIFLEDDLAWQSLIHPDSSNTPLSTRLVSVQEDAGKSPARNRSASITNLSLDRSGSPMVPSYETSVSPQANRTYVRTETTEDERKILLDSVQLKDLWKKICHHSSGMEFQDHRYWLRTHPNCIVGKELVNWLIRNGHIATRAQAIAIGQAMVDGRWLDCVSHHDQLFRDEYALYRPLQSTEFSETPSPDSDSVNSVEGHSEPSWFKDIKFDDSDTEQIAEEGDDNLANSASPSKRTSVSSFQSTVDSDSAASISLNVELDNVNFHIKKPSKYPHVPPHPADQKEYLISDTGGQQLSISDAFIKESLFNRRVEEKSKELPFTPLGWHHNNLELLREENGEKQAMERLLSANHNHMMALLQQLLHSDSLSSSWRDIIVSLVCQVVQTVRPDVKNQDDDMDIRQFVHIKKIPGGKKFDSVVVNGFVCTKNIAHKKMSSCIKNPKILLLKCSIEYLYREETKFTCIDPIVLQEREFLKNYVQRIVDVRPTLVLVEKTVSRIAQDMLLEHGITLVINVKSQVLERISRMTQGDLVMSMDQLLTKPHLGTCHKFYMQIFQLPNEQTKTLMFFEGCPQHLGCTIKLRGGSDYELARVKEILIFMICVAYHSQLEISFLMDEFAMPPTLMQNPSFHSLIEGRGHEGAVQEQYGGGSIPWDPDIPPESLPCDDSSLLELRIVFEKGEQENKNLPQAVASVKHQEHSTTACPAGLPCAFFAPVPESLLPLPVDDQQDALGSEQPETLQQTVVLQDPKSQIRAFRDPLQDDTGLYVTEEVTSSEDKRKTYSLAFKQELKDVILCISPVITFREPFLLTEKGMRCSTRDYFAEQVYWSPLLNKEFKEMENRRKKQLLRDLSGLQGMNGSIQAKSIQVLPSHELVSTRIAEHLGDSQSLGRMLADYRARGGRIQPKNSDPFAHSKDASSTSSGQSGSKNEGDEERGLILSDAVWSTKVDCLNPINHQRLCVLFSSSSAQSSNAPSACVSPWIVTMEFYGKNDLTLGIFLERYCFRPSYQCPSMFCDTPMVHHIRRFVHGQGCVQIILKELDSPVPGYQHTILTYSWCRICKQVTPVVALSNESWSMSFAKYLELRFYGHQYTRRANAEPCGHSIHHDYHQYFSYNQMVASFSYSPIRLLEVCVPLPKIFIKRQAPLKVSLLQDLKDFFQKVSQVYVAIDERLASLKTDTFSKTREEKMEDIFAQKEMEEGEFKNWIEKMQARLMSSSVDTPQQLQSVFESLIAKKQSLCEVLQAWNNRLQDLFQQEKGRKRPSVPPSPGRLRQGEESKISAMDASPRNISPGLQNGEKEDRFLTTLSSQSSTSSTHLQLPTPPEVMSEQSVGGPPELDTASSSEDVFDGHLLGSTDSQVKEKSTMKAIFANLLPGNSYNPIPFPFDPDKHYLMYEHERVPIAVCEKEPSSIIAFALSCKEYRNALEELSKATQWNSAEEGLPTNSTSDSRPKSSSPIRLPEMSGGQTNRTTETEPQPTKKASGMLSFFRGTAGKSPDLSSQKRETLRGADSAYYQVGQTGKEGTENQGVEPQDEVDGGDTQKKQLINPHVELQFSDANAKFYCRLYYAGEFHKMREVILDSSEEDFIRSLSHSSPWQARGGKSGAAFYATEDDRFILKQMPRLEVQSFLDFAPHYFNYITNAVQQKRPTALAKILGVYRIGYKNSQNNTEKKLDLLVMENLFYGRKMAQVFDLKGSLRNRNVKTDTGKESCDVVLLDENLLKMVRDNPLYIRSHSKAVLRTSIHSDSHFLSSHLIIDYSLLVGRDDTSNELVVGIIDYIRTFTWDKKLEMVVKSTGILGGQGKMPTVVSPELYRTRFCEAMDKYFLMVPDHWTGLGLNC
Summary of the method: as §1

[6] = target: T1, IRAK4 (UniProt Q9NWZ3)
T1 sequence (whole entry): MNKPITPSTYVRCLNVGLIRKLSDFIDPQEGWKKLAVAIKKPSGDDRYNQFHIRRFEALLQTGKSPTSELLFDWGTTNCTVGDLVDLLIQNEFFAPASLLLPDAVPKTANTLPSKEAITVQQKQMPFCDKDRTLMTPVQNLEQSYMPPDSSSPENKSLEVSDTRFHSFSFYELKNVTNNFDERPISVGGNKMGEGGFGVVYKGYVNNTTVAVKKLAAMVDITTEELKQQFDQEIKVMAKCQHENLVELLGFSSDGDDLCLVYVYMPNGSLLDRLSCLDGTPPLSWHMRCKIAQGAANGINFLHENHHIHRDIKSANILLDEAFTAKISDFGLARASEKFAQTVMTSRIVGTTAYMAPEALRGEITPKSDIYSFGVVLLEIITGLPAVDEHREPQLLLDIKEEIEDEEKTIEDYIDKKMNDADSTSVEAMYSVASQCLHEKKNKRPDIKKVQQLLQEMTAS
Summary of the method: as §1

[7] = target: HIPK3 (UniProt Q9H422)
Summary of the method: as §1

[8] = target: EPHA5 (UniProt P54756); conditions: cell material: Lysate mix
Chain of EPHA5 (P54756 whole entry): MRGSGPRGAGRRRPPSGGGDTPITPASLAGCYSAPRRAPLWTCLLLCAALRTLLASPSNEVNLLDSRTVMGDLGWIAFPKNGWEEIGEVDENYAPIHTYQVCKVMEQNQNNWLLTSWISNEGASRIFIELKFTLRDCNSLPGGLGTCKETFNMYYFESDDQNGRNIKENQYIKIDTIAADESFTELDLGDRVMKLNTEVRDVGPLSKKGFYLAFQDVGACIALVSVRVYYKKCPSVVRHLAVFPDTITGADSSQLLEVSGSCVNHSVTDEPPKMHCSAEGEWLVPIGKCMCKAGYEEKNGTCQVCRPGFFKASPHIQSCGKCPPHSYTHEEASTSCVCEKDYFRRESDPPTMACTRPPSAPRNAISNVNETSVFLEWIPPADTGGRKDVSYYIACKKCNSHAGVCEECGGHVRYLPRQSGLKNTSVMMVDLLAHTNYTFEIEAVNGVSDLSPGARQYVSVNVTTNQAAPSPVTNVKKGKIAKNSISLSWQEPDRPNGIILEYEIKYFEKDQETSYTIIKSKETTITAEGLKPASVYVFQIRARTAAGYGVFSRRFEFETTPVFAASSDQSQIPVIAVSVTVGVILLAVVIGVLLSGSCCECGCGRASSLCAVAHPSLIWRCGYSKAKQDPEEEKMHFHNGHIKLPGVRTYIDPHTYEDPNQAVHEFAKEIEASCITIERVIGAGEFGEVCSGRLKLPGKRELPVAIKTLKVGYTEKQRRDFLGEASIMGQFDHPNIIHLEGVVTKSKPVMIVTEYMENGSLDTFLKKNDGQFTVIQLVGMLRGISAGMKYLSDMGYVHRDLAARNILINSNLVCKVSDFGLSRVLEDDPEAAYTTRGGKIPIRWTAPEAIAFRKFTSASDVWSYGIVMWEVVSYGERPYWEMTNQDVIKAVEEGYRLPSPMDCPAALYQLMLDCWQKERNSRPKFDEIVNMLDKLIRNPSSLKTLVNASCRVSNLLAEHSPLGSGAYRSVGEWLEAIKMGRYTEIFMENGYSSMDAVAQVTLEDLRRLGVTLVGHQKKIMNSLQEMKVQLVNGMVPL
Summary of the method: as §1

[9] = target: T2, TP53RK (UniProt Q96S44)
T2 sequence (whole entry): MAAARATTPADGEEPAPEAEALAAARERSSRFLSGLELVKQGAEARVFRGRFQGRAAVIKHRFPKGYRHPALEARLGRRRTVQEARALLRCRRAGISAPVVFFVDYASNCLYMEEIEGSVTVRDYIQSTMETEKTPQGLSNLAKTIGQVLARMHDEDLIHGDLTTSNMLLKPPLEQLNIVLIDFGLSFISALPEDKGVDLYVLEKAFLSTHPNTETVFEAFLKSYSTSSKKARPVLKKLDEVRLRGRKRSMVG
Summary of the method: as §1

[10] = target: T3, UniProt O95382; conditions: cell material: Lysate mix
T3 sequence (whole entry): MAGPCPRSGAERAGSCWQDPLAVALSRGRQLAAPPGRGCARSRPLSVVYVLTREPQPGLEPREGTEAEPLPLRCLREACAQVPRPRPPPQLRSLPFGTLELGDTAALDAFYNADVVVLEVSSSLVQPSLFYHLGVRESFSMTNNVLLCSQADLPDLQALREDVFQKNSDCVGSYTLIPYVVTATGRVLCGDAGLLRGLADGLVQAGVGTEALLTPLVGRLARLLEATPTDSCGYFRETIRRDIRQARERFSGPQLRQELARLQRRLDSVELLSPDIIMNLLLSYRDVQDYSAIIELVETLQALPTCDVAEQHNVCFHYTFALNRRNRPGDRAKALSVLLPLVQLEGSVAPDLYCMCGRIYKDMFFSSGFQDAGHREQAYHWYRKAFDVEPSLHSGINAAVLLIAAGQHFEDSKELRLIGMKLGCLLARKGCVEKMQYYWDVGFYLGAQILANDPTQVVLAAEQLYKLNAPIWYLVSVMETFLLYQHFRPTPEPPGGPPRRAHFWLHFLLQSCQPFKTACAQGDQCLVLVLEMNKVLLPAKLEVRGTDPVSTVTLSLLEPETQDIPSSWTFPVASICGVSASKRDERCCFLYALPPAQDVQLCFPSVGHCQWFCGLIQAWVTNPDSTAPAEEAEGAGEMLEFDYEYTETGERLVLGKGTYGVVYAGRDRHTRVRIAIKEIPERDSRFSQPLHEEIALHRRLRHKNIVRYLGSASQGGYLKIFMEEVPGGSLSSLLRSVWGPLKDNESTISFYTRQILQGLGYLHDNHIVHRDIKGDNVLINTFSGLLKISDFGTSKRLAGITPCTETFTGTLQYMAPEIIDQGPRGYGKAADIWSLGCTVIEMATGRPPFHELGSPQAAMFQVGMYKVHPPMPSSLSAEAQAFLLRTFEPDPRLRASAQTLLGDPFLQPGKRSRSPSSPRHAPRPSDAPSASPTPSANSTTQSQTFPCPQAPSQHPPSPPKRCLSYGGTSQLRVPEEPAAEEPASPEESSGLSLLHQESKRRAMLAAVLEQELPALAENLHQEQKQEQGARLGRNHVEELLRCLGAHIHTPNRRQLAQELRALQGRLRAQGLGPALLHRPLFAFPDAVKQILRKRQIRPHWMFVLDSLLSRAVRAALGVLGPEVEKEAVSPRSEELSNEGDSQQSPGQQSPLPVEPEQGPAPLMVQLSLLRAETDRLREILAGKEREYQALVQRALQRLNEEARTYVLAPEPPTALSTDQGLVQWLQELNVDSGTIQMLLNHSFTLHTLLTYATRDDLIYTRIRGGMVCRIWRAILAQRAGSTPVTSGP
Summary of the method: as §1

pIC50 ([1]; cell material: Lysate mix) | pIC50 ([2]; cell material: Lysate mix) | pIC50 [3] | pIC50 [4] | pIC50 ([5]; cell material: Lysate mix) | pIC50 ([6]; cell material: Lysate mix) | pIC50 ([7]; cell material: Lysate mix) | pIC50 [8] | pIC50 ([9]; cell material: Lysate mix) | pIC50 [10] | pIC50 ([2]; cell material: Jurkat lysate) | SMILES | pIC50 ([1]; cell material: Jurkat cells) | pIC50 ([1]; cell material: Jurkat lysate) | pIC50 ([2]; cell material: Jurkat cells) | pIC50 ([5]; cell material: Jurkat cells) | pIC50 ([5]; cell material: Jurkat lysate) | pIC50 ([6]; cell material: Jurkat cells) | pIC50 ([6]; cell material: Jurkat lysate) | pIC50 ([7]; cell material: Jurkat cells) | pIC50 ([7]; cell material: Jurkat lysate) | pIC50 ([9]; cell material: Jurkat cells) | pIC50 ([9]; cell material: Jurkat lysate)
< 4.52 | 5.93 | 6.53 | < 4.52 | < 4.52 | < 4.52 | 4.76 | < 4.52 | < 4.52 | 4.63 | – | C#CCNC(=O)c1cc(Nc2cc(C)[nH]n2)nc(N2CCN(Cc3ccc(S(=O)(=O)F)cc3)CC2)n1 | – | – | – | – | – | – | – | – | – | – | –
< 4.52 | < 4.52 | 5.5 | < 4.52 | < 4.52 | < 4.52 | < 4.52 | < 4.52 | < 4.52 | < 4.52 | < 4.52 | O=C(NCCNC(=O)c1cc(Nc2cc(C3CC3)[nH]n2)nc(N2CCN(Cc3ccc(S(=O)(=O)F)cc3)CC2)n1)OC1CC/C=C/CCC1 (configuration not stated) | < 4.52 | < 4.52 | 5.1 | < 4.52 | < 4.52 | 5.24 | < 4.52 | 5.22 | < 4.52 | < 4.52 | < 4.52
< 4.52 | 5.81 | 7.04 | < 4.52 | < 4.52 | 5.19 | 5.74 | < 4.52 | < 4.52 | < 4.52 | – | CCNC(=O)c1cc(Nc2cc(C3CC3)[nH]n2)nc(N2CCN(Cc3ccc(S(=O)(=O)F)cc3)CC2)n1 | – | – | – | – | – | – | – | – | – | – | –
< 4.52 | 6.74 | 7.35 | < 4.52 | < 4.52 | < 4.52 | 4.62 | < 4.52 | < 4.52 | 4.66 | – | CCNC(=O)c1cc(Nc2cc(C)[nH]n2)nc(N2CCN(Cc3ccc(S(=O)(=O)F)cc3)CC2)n1 | – | – | – | – | – | – | – | – | – | – | –
< 4.52 | 4.58 | 5.31 | < 4.52 | < 4.52 | < 4.52 | < 4.52 | < 4.52 | < 4.52 | < 4.52 | – | Cc1cc(Nc2cc(C(=O)NCCNC(=O)OC3CC/C=C/CCC3)nc(N3CCN(Cc4ccc(S(=O)(=O)F)cc4)CC3)n2)n[nH]1 (configuration not stated) | – | – | – | – | – | – | – | – | – | – | –

SMILES | pIC50 ([1]; cell material: Lysate mix) | pIC50 ([2]; cell material: Lysate mix) | pIC50 [3] | pIC50 [4] | pIC50 ([5]; cell material: Lysate mix) | pIC50 ([6]; cell material: Lysate mix) | pIC50 ([7]; cell material: Lysate mix) | pIC50 [8] | pIC50 ([9]; cell material: Lysate mix) | pIC50 [10] | pIC50 ([2]; cell material: Jurkat lysate) | pIC50 ([1]; cell material: Jurkat cells) | pIC50 ([1]; cell material: Jurkat lysate) | pIC50 ([2]; cell material: Jurkat cells) | pIC50 ([5]; cell material: Jurkat cells) | pIC50 ([5]; cell material: Jurkat lysate) | pIC50 ([6]; cell material: Jurkat cells) | pIC50 ([6]; cell material: Jurkat lysate) | pIC50 ([7]; cell material: Jurkat cells) | pIC50 ([7]; cell material: Jurkat lysate) | pIC50 ([9]; cell material: Jurkat cells) | pIC50 ([9]; cell material: Jurkat lysate)
C#CCNC(=O)c1cc(Nc2cc(C3CC3)[nH]n2)nc(N2CCN(Cc3ccc(S(=O)(=O)F)cc3)CC2)n1 | – | 5.9 | 7.31 | < 4.52 | < 4.52 | 5.06 | 5.76 | < 4.52 | < 4.52 | < 4.52 | – | 5.41 | < 4.52 | 5.9 | 5.27 | < 4.52 | 6.03 | 4.62 | 5.92 | 4.89 | < 4.52 | < 4.52
